Some results are limits rather than exact numbers.

Experiment [1] concerns human C3aR (HMDMs). The experiment in a line: inhibition of ligand-induced ERK1/2 phosphorylation by SB290157 in HMDMs. It is filed as cell-based. As to conditions: 5 µM SB290157, 30 min pre-treatment. The text has this:
HMDMs were generated and cultured as previously described ([20]), with experiments approved by The University of Queensland Human Research Ethics Committee. Briefly, human buffy coat blood from anonymous healthy donors was obtained through the Australian Red Cross Blood Service (Brisbane, Australia). Human CD14+ monocytes were isolated from blood using Lymphoprep density centrifugation (STEMCELL, Melbourne, Australia) followed by CD14+ MACS magnetic bead separation (Miltenyi Biotec, Sydney, Australia). The isolated monocytes were differentiated for 7 days in Iscove’s Modified Dulbecco’s Medium supplemented with 10% FBS, 100 IU/ml penicillin, 100 μg/ml streptomycin and 15 ng/ml recombinant human macrophage colony stimulating factor (BioLegend, San Diego, USA) on 10 mm square dishes (Bio-strategy, Brisbane, Australia). Non-adherent cells were removed by washing with DPBS, and the adherent differentiated HMDMs were harvested by gentle scraping.
Ligand-induced ERK1/2 phosphorylation was assessed using the AlphaLISA Surefire Ultra p-ERK1/2 (Thr202/Tyr204) kit (PerkinElmer, Melbourne, Australia) following the manufacturer’s protocol as previously described ([18], [20], [22]). Briefly, CHO-K1, CHO-C3aR, CHO-C5aR1, HMDMs (50,000/well) or BMDMs (90,000/well) were seeded in tissue culture-treated 96-well plates (Corning, Corning, USA) for 24 h and serum-starved overnight. All ligand dilutions were prepared in serum-free medium (SFM) containing 0.1% BSA. For inhibition assays, cells were pre-treated with the following ligands (5 µM SB290157, or respective concentrations of hC3a, mC3a, hC5a, hTLQP-21, and mTLQP-21) or the solvent-only control for 30 min before agonist (hC3a, hTLQP-21 and mTLQP-21) addition. The concentration and identity of the ligands are described in detail in the figure legends. For stimulation, cells were treated with ligands at the indicated concentrations for 10 min at RT and then immediately lysed using AlphaLISA lysis buffer on a microplate shaker (450 rpm, 10 min). For the detection of phospho-ERK1/2 content, cell lysate (5 μL/well) was transferred to a 384-well ProxiPlate (PerkinElmer, Melbourne, Australia) and added to the donor and acceptor reaction mix (2.5 μL/well, respectively), followed by a 2-h incubation at RT in the dark. On a Tecan Spark 20M (Tecan, Männedorf, Switzerland), the plate was measured using standard AlphaLISA settings.
Figure 3 Agonistic and antagonistic activities of hTLQP-21 and mTLQP-21 in human monocyte-derived macrophages. […] The phospho-ERK1/2 content in the cell lysate was measured and normalised to the maximum hC3a/hC5a-induced levels before being combined. […]

The subject of experiment [2] is C5aR1. As to conditions: at the concentration used (5 µM); ref [20]; cited from earlier work. The text has this:
(§1) However, only mouse TLQP-21 was used in these studies and to the best of our knowledge, no data is available for the potential activity of TLQP-21 in human immune cells. […] However, by contrast to hC3a, the agonistic activity of TLQP-21 peptides was markedly weaker in HMDMs relative to CHO-C3aR, with EC50 values in the high micromolar ...

The test system of experiment [3] is C3aR. As to conditions: at the concentration used (5 µM); ref [20]; cited from earlier work.
Excerpt: as §1

In experiment [4] the target is T1, Human complement C3a receptor, endogenous on human monocyte-derived macrophages (human (endogenous in HMDMs)) (UniProt Q16581).
T1 sequence: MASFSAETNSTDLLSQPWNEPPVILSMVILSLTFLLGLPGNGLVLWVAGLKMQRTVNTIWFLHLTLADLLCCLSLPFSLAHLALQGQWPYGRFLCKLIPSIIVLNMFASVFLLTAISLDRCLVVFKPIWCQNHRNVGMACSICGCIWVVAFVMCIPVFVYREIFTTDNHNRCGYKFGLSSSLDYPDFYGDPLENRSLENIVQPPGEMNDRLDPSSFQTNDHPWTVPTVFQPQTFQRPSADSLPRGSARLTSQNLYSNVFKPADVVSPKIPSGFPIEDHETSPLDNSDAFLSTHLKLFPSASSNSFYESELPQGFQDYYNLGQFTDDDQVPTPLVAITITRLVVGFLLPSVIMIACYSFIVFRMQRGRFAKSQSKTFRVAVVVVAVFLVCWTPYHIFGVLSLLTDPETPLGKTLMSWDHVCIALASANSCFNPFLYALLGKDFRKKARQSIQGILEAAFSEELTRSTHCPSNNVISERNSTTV

Experiment [5] addresses T2, Human complement C3a receptor, stably expressed on CHO cells (human) (UniProt Q16581).
T2 sequence: T1 sequence

For experiment [6], the target named is Endogenous C3aR of CHO-K1 cells (Chinese hamster (endogenous in CHO-K1)).
Experiment [7] concerns the target T2, Human complement C3a receptor, stably expressed on CHO cells (human). This is another data set of the same source.
Experiment [8] addresses T1, Human complement C3a receptor, endogenous on human monocyte-derived macrophages (human (endogenous in HMDMs)). This is another data set of the same source.

As to `NC(N)=NCCC[C@H](NC(=O)COCC(c1ccccc1)c1ccccc1)C(=O)O` [SB290157], in experiment [1] (HMDMs, n = 4 donors), the “inhibition of hTLQP-21 and mTLQP-21 induced ERK signalling” value is reported as 70-90%. Also, the “remaining C3a-induced ERK signalling with SB290157” value in experiment [1] (agonist C3a, HMDMs) is reported as “less than 20 % of the untreated level”. For the same compound, the “remaining hTLQP-21 induced ERK activation with SB290157” value in experiment [1] (agonist hTLQP-21) was 29 % of the control level. Besides, in experiment [1] (agonist mTLQP-21), the “remaining mTLQP-21 induced ERK activation with SB290157” value was 16 % of the control level. Moreover, in experiment [2], the “agonist activity of SB290157 on C5aR1” value is reported as “does not exhibit any detectable agonist activity”. Besides, the “agonist activity of SB290157 on C3aR” value in experiment [3] is on record as “does not exhibit any detectable agonist activity”.
“Human C3a (from UniProt P01024 672-748) (ligand)” yielded an EC50 (nM) of ERK1/2 phosphorylation in HMDMs in experiment [4] of 0.11 nM. Also, the EC50 (nM) of ERK1/2 phosphorylation in CHO-C3aR cells in experiment [5] is 0.15 nM. The compound further showed a relative efficacy of C3a-induced ERK signalling in CHO-K1 cells, fold baseline (fold baseline) in experiment [6] of 2.7. For the same compound, the relative efficacy of C3a-induced ERK signalling in CHO-C3aR cells, fold baseline (fold baseline) in experiment [7] came out at 7.3. In addition, the C3a-induced ERK signalling in HMDMs pre-treated with the C3aR antagonist SB290157, % of the untreated level (% of the untreated level) in experiment [8] was below 20.
